“Also recorded” adds a separate entry of the source.
System: GBM lines
Assay: TMZ/IR titrated across a panel of GBM lines with a fixed dose of BCLXL inhibitor, cell death
Type: cell-based
Details: TMZ/IR titrated with a fixed dose of A1155463
From the text: In the triplet of histogram bars for each dosage, the left bar represents all data (TMZR/IR alone, n=17), the center bar represents p53 WT+BCLXL In. (n=12), and the right bar represents p53 mutants+BCLXL In. (n=5). […] To investigate if BCL-xL is preventing the standard of care from inducing apoptosis, TMZ/IR were titrated in across a panel of genetically diverse GBM lines (n=17) with a fixed dose of BCLXL inhibitor (A1155463).

For CN(C)CC#Cc1ccc(OCCCc2sc(N3CCc4cccc(C(=O)Nc5nc6ccccc6s5)c4C3)nc2C(=O)O)c(F)c1 [A1155463], the cell death (p53 mutant GBM, panel n=17 (p53 mutants n=5)) was “no added benefit” and the cell death (p53 wild type GBM, panel n=17 (p53 WT n=12)) was “significantly increase cell death; also recorded: increases cell death”.

From patent US20230040125A1, “TARGETING THE INTRINSIC APOPTOTIC MACHINERY IN GLIOBLASTOMA” (The Regents of The University Of California, priority 2019, published 2023)
